Experimental findings from ChEMBL document CHEMBL1806471, “Identification of 2-(4-pyridyl)thienopyridinones as GSK-3β inhibitors” (Bioorg Med Chem Lett, 2011) are described below.

The structures appear in SMILES notation.

Assay [1] concerns the target Cyclin-dependent kinase 2 (Homo sapiens, UniProt P24941). The assay is described as follows: Inhibition of recombinant CDK2 expressed in baculovirus using […] by 33-P leadseeker assay.
In assay [2] the target is T1, Glycogen synthase kinase-3 beta (Homo sapiens, UniProt P49841). The experiment in a line: Inhibition of human flag-tagged GSK3-beta expressed in HEK-MSRII cells assessed as CRMP-2 phosphorylation by alphaLISA assay. It is filed as cell-based.
T1 sequence (P49841 whole entry): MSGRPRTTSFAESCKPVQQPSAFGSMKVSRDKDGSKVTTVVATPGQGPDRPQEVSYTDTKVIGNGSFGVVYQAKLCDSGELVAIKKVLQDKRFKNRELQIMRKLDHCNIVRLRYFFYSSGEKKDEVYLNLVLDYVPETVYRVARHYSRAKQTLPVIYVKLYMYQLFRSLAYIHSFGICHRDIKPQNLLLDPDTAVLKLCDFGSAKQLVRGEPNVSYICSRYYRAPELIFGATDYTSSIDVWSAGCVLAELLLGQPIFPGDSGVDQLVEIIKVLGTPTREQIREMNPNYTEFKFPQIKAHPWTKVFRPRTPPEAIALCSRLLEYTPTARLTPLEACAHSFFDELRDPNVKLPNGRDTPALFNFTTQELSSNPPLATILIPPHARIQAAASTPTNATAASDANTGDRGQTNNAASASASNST
The target in assay [3] is T1, Glycogen synthase kinase-3 beta. The assay is described as follows: Inhibition of human GSK3-beta expressed in baculovirus by fluorescence polarization assay. For orientation: Polarisation of emitted light reports the rotation of a fluorescent probe.
For assay [4] the target is unchanged. The assay is described as follows: Inhibition of human full length His-tagged GSK3-beta expressed in baculovirus by alphaLISA assay.

Broadly, the IC50 is the midpoint of a concentration-inhibition curve.

For `O=c1[nH]cc(-c2cccc3cccnc23)c2sc(-c3ccncc3)cc12`, the figures for the IC50 in assay [1], in assay [2] and in assay [3] were 12600 nM, 7940 nM and 316 nM, respectively.
In the case of `Cn1cc(-c2ccc(N3CCOCC3)cc2)c2sc(-c3ccncc3)cc2c1=O`, the IC50 in assay [1] is over 15800 nM; in assay [4], 251 nM; in assay [2] it was over 100000 nM.
With `Cc1cc(-c2cc3c(=O)[nH]cc(-c4cccc(NS(C)(=O)=O)c4)c3s2)ccn1`, the IC50 in assay [2] is over 100000 nM; in assay [3], 2510 nM.
As for `O=c1[nH]cc(-c2ccc3c(c2)OCCO3)c2sc(-c3ccncc3)cc12`, the results for the IC50 in assay [1], in assay [2] and in assay [3] were 1580 nM, 631 nM and 6.31 nM, respectively.
For the compound `CCOc1ccc(-c2c[nH]c(=O)c3cc(-c4ccncc4)sc23)cn1`, the figures for the half-maximal inhibitory concentration (IC50) in assay [1], in assay [2] and in assay [3] were 6310 nM, 3160 nM and 126 nM, respectively.
Take `O=c1[nH]cc(-c2ccc(N3CCOCC3)cc2)c2sc(-c3cn[nH]c3)cc12`: the figures for the IC50 in assay [1], in assay [4] and in assay [2] were 251 nM, 12.6 nM and 398 nM, respectively.
With `N#Cc1ccc(F)c(-c2c[nH]c(=O)c3cc(-c4ccncc4)sc23)c1`, the IC50 was 200 nM in assay [1], 79.4 nM in assay [2] and 5.01 nM in assay [3].
Turning to `O=c1[nH]cc(-c2cccc(Cl)n2)c2sc(-c3ccncc3)cc12`, the IC50 in assay [1] is over 15800 nM; in assay [2], 3980 nM; in assay [3] it was 10 nM.
Consider `COCc1ccccc1-c1c[nH]c(=O)c2cc(-c3ccncc3)sc12`, for which the 50% inhibitory concentration (IC50) was 5010 nM in assay [1], 3980 nM in assay [2] and 100 nM in assay [3].
Consider `N#CCc1cccc(-c2c[nH]c(=O)c3cc(-c4ccncc4)sc23)c1`, for which the values for the half-inhibitory concentration (IC50) in assay [1], in assay [2] and in assay [3] were 3980 nM, 631 nM and 10 nM, respectively.
Regarding `CN(C)C(=O)c1ccccc1-c1c[nH]c(=O)c2cc(-c3ccncc3)sc12`, the IC50 in assay [1] was over 15800 nM; in assay [2], 6310 nM; in assay [3] it was 316 nM.
Regarding `O=c1[nH]cc(-c2ccc(N3CCOCC3)cc2)c2sc(-c3ccncc3)cc12`, the IC50 was 15800 nM in assay [1], 63.1 nM in assay [4], 1260 nM in assay [2] and 501 nM in assay [3].
As for `CS(=O)(=O)Nc1cccc(-c2c[nH]c(=O)c3cc(-c4ccnc5[nH]ccc45)sc23)c1`, the values for the half-inhibitory concentration (IC50) in assay [1], in assay [4] and in assay [2] were 3160 nM, 20 nM and over 100000 nM, respectively.
Consider `N#Cc1cscc1-c1c[nH]c(=O)c2cc(-c3ccncc3)sc12`, for which the IC50 in assay [1] is 158 nM; in assay [2], 316 nM; in assay [3] it was 12.6 nM.
With `COc1ncc(-c2ccc(N3CCOCC3)cc2)c2sc(-c3ccncc3)cc12`, the IC50 in assay [1] is over 15800 nM; in assay [4] it was 10000 nM; in assay [2] it was over 100000 nM.
With `COc1cc(F)ccc1-c1c[nH]c(=O)c2cc(-c3ccncc3)sc12`, the half-inhibitory concentration (IC50) in assay [1] is 5010 nM; in assay [2], 5010 nM; in assay [3], 158 nM.
